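In this assay, cells in 96-well plates receive the compound at five concentrations for 48 hours. Endpoints are linearly interpolated between the surrounding concentrations. At the GI50, growth is halved. TGI is the concentration that stops growth completely.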 *1 amine or outer side, *2 acyl side, *3 side chain or, on linkers, in order; H or OH if unused. Where a SMILES comes first, the peptide text is derived from it. [ ]: non-standard residue; d: D form. X38 = CSCCCC(N[*:1])C(=O)[*:2]
Legend:
Assay in all cases: DTP human tumour cell line panel, 48 h
[1] = test system: NCI-H226 lung
[2] = test system: NCI-H23 lung
[3] = test system: BT-549 breast
[4] = test system: UACC-257 melanoma
[5] = test system: HOP-92 NSCLC
[6] = test system: ACHN renal
[7] = test system: RPMI-8226 leukemia
[8] = test system: SNB-75 CNS
[9] = test system: SF-539 CNS
[10] = test system: TK-10 renal
[11] = test system: MDA-MB-231 breast
[12] = test system: DU-145 prostate
[13] = test system: MDA-MB-435
[14] = test system: SR leukemia
[15] = test system: SK-OV-3 ovarian
[16] = test system: OVCAR-5 ovarian
[17] = test system: PC-3 prostate
[18] = test system: SK-MEL-28 melanoma

For CSCCCC(NC(=O)CNC(=O)C1CCCN1C(=O)C(Cc1ccc(O)cc1)NC(=O)C(Cc1ccccc1)NC(=O)C(CCCN=C(N)N)NC(=O)C(CC(=O)O)NC(=O)C1CCCN1C(=O)C(CC(=O)O)NC(=O)C1CCCN1C(=O)C1CCCN1C(=O)CN)C(N)=O (stereo not given) (H-GPPDPDRFYPG[X38]-NH2; configuration not given here), the TGI [1] was > 50 µM, the TGI [2] was > 50 µM and the TGI [3] was > 50 µM. The TGI [4] was > 50 µM and the TGI [5] was > 50 µM.
CCCCCCCCCCCCCC1=NCC[N+]1(CCO)Cc1ccccc1 (stereo not given) was tested, and the GI50 [6] was 1.63 µM, the TGI [6] was 3.1 µM and the GI50 [7] was 1.85 µM. The TGI [7] was 4.8 µM, the GI50 [8] was 1.45 µM and the TGI [8] was 2.81 µM. For the same compound, the GI50 [9] was 1.68 µM, the TGI [9] was 3.16 µM and the GI50 [10] was 1.71 µM. It also gave a TGI [10] of 3.28 µM, a GI50 [11] of 1.54 µM and a TGI [11] of 3.14 µM. It also gave a GI50 [12] of 1.77 µM, a TGI [12] of 3.23 µM and a GI50 [13] of 1.69 µM. For the same compound, the TGI [13] was 3.18 µM, the GI50 [14] was 1.51 µM and the TGI [14] was 4.2 µM. It also gave a GI50 [15] of 1.86 µM, a TGI [15] of 3.8 µM and a GI50 [16] of 1.57 µM. The TGI [16] was 3.07 µM, the GI50 [17] was 1.64 µM and the TGI [17] was 3.23 µM. It also gave a GI50 [4] of 2 µM, a TGI [4] of 3.72 µM and a GI50 [18] of 1.7 µM. For the same compound, the TGI [18] was 3.22 µM.
For Nc1ccn(C2CSC(CO)O2)c(=O)n1 (stereo not given), the GI50 [2] was > 1000 µM and the TGI [2] was > 1000 µM.

Source: PubChem BioAssay (NCI)
